Data published in ChEMBL document CHEMBL1201862, “PubChem BioAssay data set” (2004).
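Compound exposure: 48 hours, 5 concentrations, 96-well plates. Abbreviation: GI50, concentration required for 50% inhibition of growth.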 Activity calls are given as the source filed them. Rule as the data show it: active = GI50 up to about 1.1 µM and inactive = higher.

Assays:
Assay in all cases: NCI-60 cell line screen, 48 h
HCT-15 = test system: HCT-15
OVCAR-4 = test system: OVCAR-4
MCF7 = test system: MCF7
SK-MEL-28 = test system: SK-MEL-28
SK-OV-3 = test system: SK-OV-3
NCI-H23 = test system: NCI-H23
IGROV-1 = test system: IGROV-1
A498 = test system: A498
NCI-H522 = test system: NCI-H522
LOX IMVI = test system: LOX IMVI
SF-539 = test system: SF-539
SW-620 = test system: SW-620
UO-31 = test system: UO-31
OVCAR-8 = test system: OVCAR-8
PC-3 = test system: PC-3
NCI-H460 = test system: NCI-H460
TK-10 = test system: TK-10
K562 = test system: K562
HCC 2998 = test system: HCC 2998
OVCAR-3 = test system: OVCAR-3

Structure (SMILES)	GI50 (HCT-15) [µM]	GI50 (OVCAR-4)	GI50 (MCF7)	GI50 (SK-MEL-28)	GI50 (SK-OV-3)	GI50 (NCI-H23)	GI50 (IGROV-1)	GI50 (A498)	GI50 (NCI-H522)	GI50 (LOX IMVI)	GI50 (SF-539)	GI50 (SW-620)	GI50 (UO-31)	GI50 (OVCAR-8)	GI50 (PC-3)	GI50 (NCI-H460)	GI50 (TK-10)	GI50 (K562)	GI50 (HCC 2998)	GI50 (OVCAR-3)
CCCCn1cc(C(=O)O)c(=O)c2c3sccc3ccc21	47	> 100 µM (inactive)	> 100 µM (inactive)	> 100 µM (inactive)	> 100 µM (inactive)	> 100 µM (inactive)	> 100 µM (inactive)	> 100 µM (inactive)	> 100 µM (inactive)	> 100 µM (inactive)	> 100 µM (inactive)	> 100 µM (inactive)	20 µM (inactive)	> 100 µM (inactive)	> 100 µM (inactive)	> 100 µM (inactive)	> 100 µM (inactive)	> 100 µM (inactive)	> 100 µM (inactive)	> 100 µM (inactive)
O=c1[nH]c(=O)n(C2CC(O)C(CS)O2)cc1F (stereo not given)	74.5	> 92.7 µM (inactive)	8.38 µM (inactive)	74.1 µM (inactive)	> 100 µM (inactive)	> 94.4 µM (inactive)	> 100 µM (inactive)	26.6 µM (inactive)	> 87.1 µM (inactive)	61.9 µM (inactive)	11 µM (inactive)	> 86.1 µM (inactive)	60.4 µM (inactive)	14.8 µM (inactive)	81.3 µM (inactive)	6.87 µM (inactive)	83.2 µM (inactive)	> 93.3 µM (inactive)	4.61 µM (inactive)	> 92.3 µM (inactive)
COc1cc(/N=N/c2cccc(S(N)(=O)=O)c2)c2ccccc2c1N	18.2	13.4 µM (inactive)	6.84 µM (inactive)	7.11 µM (inactive)	15.6 µM (inactive)	2.02 µM (inactive)	10.3 µM (inactive)	19.7 µM (inactive)	12.1 µM (inactive)	3.4 µM (inactive)	3.05 µM (inactive)	23.9 µM (inactive)	15.3 µM (inactive)	16.3 µM (inactive)	11.5 µM (inactive)	9.98 µM (inactive)	16.1 µM (inactive)	12.2 µM (inactive)	8.04 µM (inactive)	4.86 µM (inactive)
C=C(C)CCC(=O)[C@](C)(O)[C@H]1[C@H](O)C[C@@]2(C)[C@@H]3CCc4c(cc(OC5OC(CO)C(O)C(O)C5O)c(O)c4C)C3(C)C(=O)C[C@]12C (stereo not given in full)	> 100	> 100 µM (inactive)	> 100 µM (inactive)	> 100 µM (inactive)	> 100 µM (inactive)	> 100 µM (inactive)	> 100 µM (inactive)	> 100 µM (inactive)	> 100 µM (inactive)	> 100 µM (inactive)	> 100 µM (inactive)	> 100 µM (inactive)	> 100 µM (inactive)	> 100 µM (inactive)	> 100 µM (inactive)	> 100 µM (inactive)	> 100 µM (inactive)	> 100 µM (inactive)	> 100 µM (inactive)	> 100 µM (inactive)
